Experimental data as given in patent publication US8846627B2, “Method for treatment of malaria” (The Second Military Medical University, priority 2009, dated 2014).
Read-outs that look alike come from different tables or passages of the source.

What was measured:
[1] = test system: chloroquine sensitive (D6) strain of P. falciparum; assay: In vitro anti-malarial activity assay (plasmodial LDH activity), D6 clone; format: cell-based; conditions: Plasmodium falciparum, read-out: P. falciparum (D6 Clone) IC50
Procedure: (§1) In vitro anti-malarial activity of the representative compounds was determined against chloroquine sensitive (D6) and chloroquine-resistant (W2) strains of P. falciparum.
(§2) The anti-malarial activity was determined by measuring plasmodial LDH activity as described earlier (Jain, M.; Khan, S. I.; Tekwani, B. L.; Jacob, M. R.; Singh, S.; Singh, P. P.; Jain, R. Synthesis, anti-malarial, antileishmanial, and antimicrobial activities of some 8-quinolinamine analogues. Bioorg. Med. Chem. 2005, 13, 4458-4466). A suspension of red blood cells infected with D6 or W2 strains of P. falciparum (200 with 2% parasitemia and 2% hematocrit in RPMI 1640 medium supplemented with 10% human serum and 60 µg/mL Amikacin) was added to the wells of a 96-well plate containing 10 μL of serially diluted test samples. The plate was flushed with a gas mixture of 90% N2, 5% O2, and 5% CO2 and incubated at 37° C. for 72 h in a modular incubation chamber (Billups-Rothenberg, Calif.). Parasitic LDH activity was determined by using Malstat™ reagent (Flow Inc., Portland, Oreg.) according to the procedure of Makler and Hinrichs (M. T. Makler and D. J. Hinrichs, Measurement of the lactate dehydrogenase activity of Plasmodium falciparum as an assessment of parasitemia. J. Am. J. Trop. Med. Hyg. 1993, 48(2):205-210). Briefly, 20 μl, of the incubation mixture was mixed with 100 μL of the Malstat™ reagent and incubated at room temperature for 30 min Twenty microliters of a 1:1 mixture of NBT/PES (Sigma, St. Louis, Mo.) was then added and the plate was further incubated in the dark for 1 h. The reaction was then stopped by the addition of 100 μL of a 5% acetic acid solution. The plate was read at 650 nm. Artemisinin and chloroquine were included in each assay as the drug controls. IC50 values were computed from the dose-response curves. To determine the selectivity index of anti-malarial activity of compounds, their cytotoxicity in vitro to mammalian cells was also determined. The assay was performed in 96-well tissue culture-treated plates as described earlier (J. Mustafa, S. I. Khan, G. Ma, L. A. Walker and I. A. Khan, Synthesis and Anticancer Activities of Fatty Acid Analogs of Podophyllotoxin. Lipids. 2004, 39(2):167-172). Vero cells (monkey kidney fibroblasts) were seeded to the wells of 96-well plate at a density of 25,000 cells/well and incubated for 24 h. Samples at different concentrations were added and plates were again incubated for 48 h. The number of viable cells was determined by Neutral Red assay. IC50 values were obtained from dose-response curves. Doxorubicin was used as a positive control.

[2] = test system: chloroquine-resistant (W2) strain of P. falciparum; assay: In vitro anti-malarial activity assay (plasmodial LDH activity), W2 clone; format: cell-based; conditions: Plasmodium falciparum, read-out: P. falciparum (W2 Clone) IC50
Procedure: as §1, §2

[3] = test system: Plasmodium berghei (chloroquine sensitive strain); assay: In vivo anti-malarial activity, 4-day suppressive test in infected mice; conditions: Swiss albino mice; for Day 4 % Suppression / Day 5 % Suppression / Day 6 % Suppression: intragastric
Procedure: Tests were performed in a 4-day suppressive standard test using the methods of David, Thurston and Peters (David, A. F., Philip, J. R., Simon, L. C., Reto B., and Solomon N. Antimalarial drug discovery: Efficacy models for compound screening. Nature Reviews. 2004; 3: 509-520). The plasmodium species, that is most widely employed in rodent malaria parasite-Plasmodium berghei (chloroquine sensitive strain), was used to infect Swiss albino mice for a fourday suppressive test. The P. berghei was subsequently maintained in the laboratory by serial blood passage from mouse to mouse. For the study, a donor mouse with a rising parasitemia of 20% was sacrificed and its blood was collected in a slightly heparinized syringe from the auxiliary vessels. The blood was diluted with Trisodium Citrate (TC) medium so that each 0.2 ml contained approximately 107 infected red cells. Each animal received inoculums of about […], which is expected to produce a steadily rising infection in mice.
Male Swiss albino mice were used. The mice were allowed to acclimatize to the laboratory environment under a controlled temperature of 20° C. and at optimum humidity for at least three days before being subjected to the experiments. All of the mice were divided into groups of six, and infected with malaria parasites.
The infection of the recipient mice was initiated by needle passage of the above mentioned parasite preparation, from the donor to healthy test animals via an intraperitoneal route. Therefore, P. berghei infected red blood cells were intraperitoneally injected into the mice from the blood diluted with TC medium so that each 0.2 ml had approximately 106-107 infected red cells (parasite per kg of body weight). Each mouse was infected with single inoculums of 0.2 ml blood.
The 4-day procedures were started on Mondays while blood smears for parasitemia were collected on Fridays. The infected mice were weighed, randomly divided into treatment, vehicle and standard drug groups. […] The compounds were administered through intra gastric route using the stomach tube to ensure the safe ingestion of the compounds and the vehicle.
Thin smears of blood films were obtained from the peripheral blood on the tail from each mouse on day four after infection. The smears were placed on microscopic slides, fixed with methanol and stained with Gemsa at pH 7.2, for parasitemia. […] The number of parasitized erythrocytes in each of the 10-50 such fields were counted three times and the average was calculated to give the Parasitemia of each individual animal. Percentage of suppression was calculated by using the following formula. % Suppression=(Parasitemia in negative control−Parasitemia in study group)/Parasitemia in negative control

[4] = target: T1, Falcipain-2 protease (FP-2) (Plasmodium falciparum, UniProt Q8I6U4); assay: Falcipain-2 protease inhibition assay (fluorescence reaction rate); format: biochemical; conditions: for inhibition at 10 µM: 10 μM compound, pH 5.5; for IC50: pH 5.5, sigmoidal fit, read-out: IC50 against falcipain-2
T1 construct: The falcipain-2 fragment was amplified by the polymerase chain reaction (PCR); His6 (N-terminal MRGS-His6 supplied by the pQE-30 vector; own knowledge of the vector, consistent with the Ni2+-NTA purification) (N); made in house; host or cells: E. coli M15
T1 sequence (Q8I6U4 244-484): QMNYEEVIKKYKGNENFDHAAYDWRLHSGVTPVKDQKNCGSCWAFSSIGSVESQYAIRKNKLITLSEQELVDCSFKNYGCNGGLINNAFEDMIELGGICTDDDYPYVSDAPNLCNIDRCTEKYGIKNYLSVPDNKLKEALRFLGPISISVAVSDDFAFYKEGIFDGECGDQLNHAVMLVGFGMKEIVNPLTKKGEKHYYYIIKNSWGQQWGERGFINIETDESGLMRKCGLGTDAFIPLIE
Procedure: (1) Expression and Purification of Falcipain-2 and Refolding of FP-2 Inclusion Bodies Protein
(2) The Determination of the Invention Compounds' Inhibitory Activity Against FP-2
FP-2 protein and test compounds dissolved in DMSO (prepared from EXAMPLES 1-4) were added to 197 μL, buffer, containing 100 mM NaOAc, 10 mM DTT, pH 5.5 (final concentration 10 μg/mL). The test compound were Stenopalustroside A, Stenopalustroside D, Tiliroside, kaempferol 3-O-β-(6″-caffeoylglucoside) and kaempferol 3-(2,4-di-E-p-coumaroyl-rhamnoside), respectively, which final concentration were 10 μM and 0 μM (as negative control). These compounds were incubated for […] and employed MD SpectraMax M5 Microplate Reader to continuous detect the RFU for 15 min, at excitation 355 nm and emission 460 nm Calculate the reaction rate Km, and obtain percentage inhibitory rate of the test compound at 10 μM by the following equation,
The equation is: (Kmof control group−Kmof experimental group)/Kmof control group×100%
Select […] compounds with over 50% inhibitory rate to detect IC50, and utilize the compound solutions prepared from EXAMPLE 1 to EXAMPLE 4, Stenopalustroside A, tiliroside kaempferol 3-O-β-(6″-caffeoylglucoside), and the experimental methods and system followed as EXAMPLE 6. According to FP-2 activity reaction rate Km with compounds at different concentrations, we can calculate the inhibitory rate of compounds against FP-2 at different concentration. The IC50 value was fitted with utilizing the Sigmoidal Equation by Origin software.

[5] = D6, 72 h incubation, LDH readout
[6] = W2, 72 h incubation, LDH readout

Row | SMILES | IC50 [1, 5] [µM] | IC50 [2, 6] [µM] | inhibition at 10 µM [4] [%] | IC50 [4] [µM] | Day 4 % Suppression ([3]; 10 mg/kg daily for 4 days) [%] | Day 5 % Suppression ([3]; 10 mg/kg daily for 4 days) [%] | Day 6 % Suppression ([3]; 10 mg/kg daily for 4 days) [%] | Day 4 % Suppression ([3]; 200 mg/kg daily for 4 days) [%] | Day 5 % Suppression ([3]; 200 mg/kg daily for 4 days) [%] | Day 6 % Suppression ([3]; 200 mg/kg daily for 4 days) [%] | Day 4 % Suppression ([3]; 50 mg/kg daily for 4 days) [%] | Day 5 % Suppression ([3]; 50 mg/kg daily for 4 days) [%] | Day 6 % Suppression ([3]; 50 mg/kg daily for 4 days) [%] | Day 4 % Suppression ([3]; 100 mg/kg daily for 4 days) [%] | Day 5 % Suppression ([3]; 100 mg/kg daily for 4 days) [%] | Day 6 % Suppression ([3]; 100 mg/kg daily for 4 days) [%] | Day 5 % Suppression ([3]; 400 mg/kg daily for 4 days) [%] | also measured
1 | CCN(CC)CCCC(C)Nc1ccnc2cc(Cl)ccc12 (stereo not shown) [Chloroquine, reference compound] | – | – | – | – | 100 | 100 | 100 | – | – | – | – | – | – | – | – | – | – | IC50 ([1]; D6, 72 h): < 26.4 µM; IC50 ([2]; W2, 72 h): 160 µM
2 | O=C(/C=C\c1ccc(O)cc1)OCC1O[C@@H](Oc2c(-c3ccc(O)cc3)oc3cc(O)cc(O)c3c2=O)C(O)[C@H](OC(=O)/C=C\c2ccc(O)cc2)[C@@H]1O (stereo partly shown) [Stenopalustroside A] | 32.8 | 98.6 | 53 | 1.45 | – | – | – | 34.7 | 33.3 | 18.9 | – | – | – | – | – | – | – | –
3 | O=C(/C=C\c1ccc(O)cc1)OCC1O[C@@H](Oc2c(-c3ccc(O)cc3)oc3cc(O)cc(O)c3c2=O)C(O)[C@H](OC(=O)/C=C/c2ccc(O)cc2)[C@@H]1O (stereo partly shown) [Stenopalustroside D] | 68.4 | 165 | 39.4 | – | 30.4 | 51.5 | 32.4 | 43.4 | 42.4 | 37.8 | 60.8 | 63.6 | 58.3 | 56.5 | 60.6 | 45.9 | 24.2 | Day 4 % Suppression ([3]; 400 mg/kg daily for 4 days): 8.6%; Day 6 % Suppression ([3]; 400 mg/kg daily for 4 days): 13.5%; maximum suppression ratio ([3]; maximum over doses and days): 60%

The next lines start with results.

Row | IC50 [1, 5] [µM] | IC50 [2, 6] [µM] | inhibition at 10 µM [4] [%] | IC50 [4] [µM] | SMILES | Day 4 % Suppression ([3]; 10 mg/kg daily for 4 days) [%] | Day 5 % Suppression ([3]; 10 mg/kg daily for 4 days) [%] | Day 6 % Suppression ([3]; 10 mg/kg daily for 4 days) [%] | Day 4 % Suppression ([3]; 200 mg/kg daily for 4 days) [%] | Day 5 % Suppression ([3]; 200 mg/kg daily for 4 days) [%] | Day 6 % Suppression ([3]; 200 mg/kg daily for 4 days) [%] | Day 4 % Suppression ([3]; 50 mg/kg daily for 4 days) [%] | Day 5 % Suppression ([3]; 50 mg/kg daily for 4 days) [%] | Day 6 % Suppression ([3]; 50 mg/kg daily for 4 days) [%] | Day 4 % Suppression ([3]; 100 mg/kg daily for 4 days) [%] | Day 5 % Suppression ([3]; 100 mg/kg daily for 4 days) [%] | Day 6 % Suppression ([3]; 100 mg/kg daily for 4 days) [%] | Day 5 % Suppression ([3]; 400 mg/kg daily for 4 days) [%] | also measured
4 | < 26.4 | < 26.4 | – | – | C[C@@H]1CC[C@H]2[C@@H](C)C(=O)O[C@@H]3O[C@@]4(C)CC[C@@H]1[C@]32OO4 [Artemisinine, reference compound] | – | – | – | – | – | – | – | – | – | – | – | – | – | –
5 | 45.1 | 147 | 49.4 | – | CC1O[C@@H](Oc2c(-c3ccc(O)cc3)oc3cc(O)cc(O)c3c2=O)C(OC(=O)/C=C/c2ccc(O)cc2)C(O)[C@H]1OC(=O)/C=C/c1ccc(O)cc1 (stereo partly shown) [kaempferol 3-(2,4-di-E-p-coumaroyl-rhamnoside)] | – | – | – | – | 9.0 | 5.4 | 34.7 | 24.2 | 29.7 | 13.0 | 21.2 | 24.3 | – | –
6 | 55.8 | 91.3 | 53 | 13.5 | O=C(/C=C/c1ccc(O)c(O)c1)OCC1O[C@@H](Oc2c(-c3ccc(O)cc3)oc3cc(O)cc(O)c3c2=O)C(O)C(O)[C@@H]1O (stereo partly drawn) [kaempferol 3-O-β-(6″-caffeoylglucoside)] | 20.6 | 27.2 | 37.8 | 4.3 | 9.0 | 5.4 | 52.1 | 54.5 | 45.9 | 13.0 | 15.1 | 10.8 | 6.0 | –
